Values of other authors, collected in US20040120916A1, “Contact lens care compositions, methods of use and preparation which protect ocular tissue membrane integrity” (ADVANCED MEDICAL OPTICS, INC., priority 2002, published 2004).

Key:
[1] = tested on: lipopolysaccharide (LPS)-intoxicated rats; settings: LPS rat stomachs irrigated with acid solution
[2] = tested on: rat large-intestinal tissue; settings: decrease caused by sodium laurate
[3] = tested on: human corneal epithelial cells; settings: 450 mOsm/kg hypertonic medium; 1 mM taurine (0.0125 w/v %)
[4] = tested on: rat large-intestinal tissue

SMILES: NCCS(=O)(=O)O [taurine]
- ulcerogenic parameters including mucosal histamine concentrations [1]: dose-dependent attenuations
- transepithelial electrical resistance, a measure of cell membrane integrity [2]: significantly suppressed the decrease
- cell survival [3]: significantly increased cell survival
- release of histamine enhanced by sodium laurate [4]: suppress the release of histamine
